What was measured:
cardiac P2X receptor = assay: Whole-cell voltage clamp of P2 agonist-induced current in WT ventricular myocytes; type: cell-based, mouse; details: for Inhibition of the 2-meSATP-induced current by P2X receptor antagonists: PPADS 100 μM, NF449 300 nM, Brilliant Blue G 5 μM, ramp −100 to +50 mV
Description: Mice displaying the CSQ model of severe cardiomyopathy and heart failure were bred and maintained by methods known in the art. The CSQ transgenic (TG) mice were originally provided by Dr. Larry Jones (Krannert Institute of Cardiology, Indiana University School of Medicine, Indiana), and developed hypertrophy followed by a lethal heart failure phenotype with death near the age of 3 months. Ventricular myocytes were obtained from 3-month old wild type (WT) and CSQ mice of either sex (26 WT, 47 TG) by an enzymatic dissociation procedure. Briefly, the hearts were rapidly excised from mice that had been anesthetized with pentobarbital and treated with 1000 Units of heparin. The aorta was cannulated and the heart perfused in a Langendorff apparatus with oxygenated (95% O2/5% CO2) Ca^2+-free solution (37° C.) for 5 minutes at a rate of 2.5 ml/min. The solution composition was: 126 mM NaCl, 4.4 mM KCl, 1.0 mM MgCl2, 18 mM NaHCO3, 11 mM Glucose, 4 mM HEPES, and 3 mM BDM (2,3-butanedione monoxime), (pH 7.3 adjusted with NaOH). Thereafter, the perfusing solution was changed to that containing 25 μM CaCl2 and liberase (70 μg/ml, Roche Molecular Biochemicals, Inc.) for 8-10 minutes. Cells were sedimented by gravity for 10-15 minutes and the pellet was resuspended in 200 μM Ca^2+-containing Tyrode's solution (containing 3 mM BDM), allowed to settle for 30 minutes at room temperature, and suspended with Tyrode's solution containing: 135 mM NaCl, 5.4 mM KCl, 1.0 mM CaCl2, 1.0 mM MgCl2, 10 mM HEPES and 10 mM dextrose (pH 7.4 adjusted with NaOH). The experiments were carried out at room temperature (22-23° C.) and were completed within 4-6 hours after myocyte isolation.
The whole cell patch-clamp technique was used for these experiments. Electrodes were prepared from borosilicate glass pipettes (1.2 mm i.d.) with a two step pulling procedure and filled with pipette solution. The pipette was connected via an Ag—AgCl wire to the head stage of an amplifier (List EPC-7, Medical Systems, Greenvale, N.Y.) controlled by a computer and Axon pClamp™ software. For voltage clamp experiments, the electrodes were filled with a solution containing: 135 mM cesium aspartate, 5 mM NaCl, 5 mM Mg2ATP, 10 mM HEPES, and 10 mM EGTA (pH 7.3 adjusted with CsOH) with or without 2 mM GDPβS. Electrode resistances were 2-4 MΩ. As soon as electrical contact was established, the superfusion medium was changed to a modified Tyrode's solution (5.4 mM KCl was omitted and 10 mM CsCl and 5 μM ouabain were added to Tyrode's solution to block K^+ currents and the Na/K pump current, respectively). In quantifying the P2 agonist-induced current, the Tyrode's solution contained the indicated concentration of each agent. In studying the effect of a P2 receptor antagonist, both agonist and antagonist were co-applied at the indicated concentrations. The voltage clamp protocol used was a ramp voltage protocol from −100 mV holding potential to +50 mV. The ramp protocol was applied to cells at 20 s intervals for 1 minute. Three current traces from −100 mV to 50 mV were averaged to construct the I-V relationship.

rat 5′-ectonucleotidase = biological target: T1, rat 5′-ectonucleotidase (Rattus norvegicus, UniProt P21588); details: cited from earlier work
T1 sequence (P21588 29-551): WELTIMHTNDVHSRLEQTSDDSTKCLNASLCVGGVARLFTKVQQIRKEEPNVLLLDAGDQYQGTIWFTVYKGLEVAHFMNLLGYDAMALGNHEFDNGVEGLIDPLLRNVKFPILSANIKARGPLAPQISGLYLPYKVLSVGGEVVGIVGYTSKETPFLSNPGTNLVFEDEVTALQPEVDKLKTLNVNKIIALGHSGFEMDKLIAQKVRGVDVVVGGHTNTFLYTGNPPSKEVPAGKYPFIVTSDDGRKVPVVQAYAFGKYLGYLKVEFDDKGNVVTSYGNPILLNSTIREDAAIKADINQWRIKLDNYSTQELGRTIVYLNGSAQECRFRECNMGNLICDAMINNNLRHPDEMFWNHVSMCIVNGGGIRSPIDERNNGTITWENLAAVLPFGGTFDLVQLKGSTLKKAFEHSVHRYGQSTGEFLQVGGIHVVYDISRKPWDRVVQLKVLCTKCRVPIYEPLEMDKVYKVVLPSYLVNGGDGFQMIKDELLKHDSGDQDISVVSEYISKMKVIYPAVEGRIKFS

[1] = tested on: Binary P2X4 receptor/CSQ transgenic mice; assay: Lifespan of binary P2X4 receptor/CSQ transgenic mice given drug in drinking water; type: in vivo, mouse; details: 2 mg/ml in drinking water
Experimental: Metoprolol, a beta-adrenergic receptor blocker, was dissolved in drinking water at a concentration of 2 mg/ml. Binary P2X4 receptor/CSQ transgenic mice were fed either regular drinking water (n=8 mice) or drinking water containing the metoprolol (n=8 mice). […] Because overexpression of the P2X4 receptor rescues calsequestrin mice in a similar manner to MRS2339, administration of a beta blocker such as metoprolol with MRS2339 or another P2X receptor agonist should synergistically increase lifespan.

P2X4R Tg myocytes = assay: Cyclic AMP enzymatic immunoassay in P2X4R Tg myocytes; type: cell-based, mouse; details: 10 minutes, 2-meSATP at 10 μM
Experimental: Cyclic AMP was determined with an enzymatic immuno-assay kit (EIA, Direct Biotrak EIA kit) according to manufacturer's instructions. The method has been used to estimate cAMP level in dispersed mammalian cardiac ventricular myocytes. In brief, 3-month P2X4R Tg myocytes were isolated and plated in laminin-coated 96 well plate at a density of 1000 cells/well, equilibrated for 1 hour at 37° C., incubated with either phosphate-buffered saline (pH=7.4) or 10 μM 2-meSATP for 10 minutes, and processed for acetylation and subsequent cAMP EIA. cAMP levels were normalized to proteins in each individual well.

CSc1nc(N)c2ncn([C@@H]3O[C@H](COP(=O)(O)OP(=O)(O)O)[C@@H](O)[C@H]3O)c2n1 [2-meSADP, 2-methylthioADP]
Induction of current (cardiac P2X receptor; 3 μM, myocytes with a full response to 3 μM 2-meSATP): failed to induce any current

Nc1ncnc2c1ncn2C1C(O)C(O)C2(COP(=O)(O)O)CC12 (stereo not drawn) [(N) methanocarba AMP]
Rate of hydrolysis relative to the rate of hydrolysis of AMP (rat 5′-ectonucleotidase): 0.14%

CCOc1ccc(Nc2ccc(/C(=C3C=C/C(=[N+](/CC)Cc4cccc(S(=O)(=O)[O-])c4)C=C/3C)c3ccc(N(CC)Cc4cccc(S(=O)(=O)[O-])c4)cc3C)cc2)cc1.[Na+] [Brilliant Blue G]
Inhibition of the 2-meSATP-induced current by P2X receptor antagonists (cardiac P2X receptor; 2-meSATP 3 μM): very little inhibitory effect

CNc1nc(I)nc2c1ncn2[C@H]1C[C@H](OP(=O)(O)O)[C@]2(COP(=O)(O)O)C[C@H]12 [MRS2500, (1′R,2′S,4′S,5′S)-4-(2-iodo-6-methylamino-purin-9-yl)-1-[(phosphate)-methyl]-2-(phosphate)-bicyclo[3.1.0]hexane]
Block of the current evoked by 2-meSATP (cardiac P2X receptor; MRS2500 1 μM, 2-meSATP 3 μM, WT myocytes): could not block
Block of the current evoked by MRS2339 (cardiac P2X receptor; data not shown): could not block

COCCc1ccc(OCC(O)CNC(C)C)cc1 (stereo not drawn) [Metoprolol]
Median lifespan [1]: 491 days

O=C(Nc1cc(C(=O)Nc2ccc(S(=O)(=O)O)cc2S(=O)(=O)O)cc(C(=O)Nc2ccc(S(=O)(=O)O)cc2S(=O)(=O)O)c1)Nc1cc(C(=O)Nc2ccc(S(=O)(=O)O)cc2S(=O)(=O)O)cc(C(=O)Nc2ccc(S(=O)(=O)O)cc2S(=O)(=O)O)c1 [NF449, 4,4′,4″,4′″-[carbonylbis(imino-5,1,3-benzenetriyl-bis(carbonylimino))]tetrakis-1,3-benzenedisulfonic acid]
Inhibition of the 2-meSATP-induced current by P2X receptor antagonists (cardiac P2X receptor; 2-meSATP 3 μM): very little inhibitory effect

Cc1nc(N=Nc2ccc(S(=O)(=O)O)cc2S(=O)(=O)O)c(COP(=O)(O)O)c(C=O)c1O [PPADS]
Inhibition of the 2-meSATP-induced current by P2X receptor antagonists (cardiac P2X receptor; 2-meSATP 3 μM): partially inhibit

CC(C)NCC(O)c1ccc(O)c(O)c1 (stereo not drawn) [isoproterenol]
Intracellular cyclic AMP level (P2X4R Tg myocytes): 16.6 ± 1.53 pmol/mg

— patent US8410078B2, “Composition and methods to treat cardiac diseases” (University of Connecticut, priority 2006, dated 2013)
